Calls of active or inactive are those of the source.

Assay [1] concerns the target Vasopressin V1a receptor (Homo sapiens, UniProt P37288). The assay can be described thus: Counterscreen for Oxytocin Receptor (OXTR) agonists: Fluorescence-based cell-based high throughput dose response assay to identify agonists of the vasopressin 1 receptor (V1R). [Related pubchem assays: 2435 (Primary screen (OXTR agonists in singlicate)), 434991 (Counterscreen (V1R agonists in triplicate)), 2482 (Summary (OXTR agonists)) …. Format: functional. In general terms: A counterscreen serves to expose hits that act by an unwanted route or on another target.

Assay [2] concerns the target Oxytocin receptor (Homo sapiens, UniProt P30559). Kind of assay: Fluorescence-based cell-based high throughput dose response assay for agonists of the Oxytocin Receptor (OXTR). [Related pubchem assays: 2435 (Primary screen (OXTR agonists in singlicate)), 434991 (Counterscreen (V1R agonists in triplicate)), 2482 (Summary (OXTR agonists)), 434963 (Confirmation screen (OXTR agonists in triplicate))]. Format: functional.

The nature of assay [3]: mRNA 3' processing disruption, beta-gal signal increase – luminescence, S. cerevisiae SKY197-pL101, dose response (AID 2525). It is filed as functional, cell-based.
A short description of assay [4]: yeast viability loss, SKY197-pL101 strain – Alamar Blue fluorescence, MIC, counter-screen for polyadenylation inhibitor project, dose response (AID 2693). Format: functional. The following applies: Saccharomyces cerevisiae. Background: Alamar Blue is a resazurin reagent that responds to reducing activity.
Assay [5] concerns the target Large T antigen (Simian virus 40, UniProt P03070). It is filed as functional, Betapolyomavirus macacae.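 Also: Confirmatory-stage PubChem screen for compounds that inhibit SV40 T antigen.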
The nature of assay [6]: Luminescence Cell-Based Dose Confirmation HTS to Identify Inhibitors of Polyadenylation. Format: functional.
Assay [7] deals with T1, Alkaline phosphatase, tissue-nonspecific isozyme (Homo sapiens, UniProt P05186).
T1 sequence (P05186 whole entry): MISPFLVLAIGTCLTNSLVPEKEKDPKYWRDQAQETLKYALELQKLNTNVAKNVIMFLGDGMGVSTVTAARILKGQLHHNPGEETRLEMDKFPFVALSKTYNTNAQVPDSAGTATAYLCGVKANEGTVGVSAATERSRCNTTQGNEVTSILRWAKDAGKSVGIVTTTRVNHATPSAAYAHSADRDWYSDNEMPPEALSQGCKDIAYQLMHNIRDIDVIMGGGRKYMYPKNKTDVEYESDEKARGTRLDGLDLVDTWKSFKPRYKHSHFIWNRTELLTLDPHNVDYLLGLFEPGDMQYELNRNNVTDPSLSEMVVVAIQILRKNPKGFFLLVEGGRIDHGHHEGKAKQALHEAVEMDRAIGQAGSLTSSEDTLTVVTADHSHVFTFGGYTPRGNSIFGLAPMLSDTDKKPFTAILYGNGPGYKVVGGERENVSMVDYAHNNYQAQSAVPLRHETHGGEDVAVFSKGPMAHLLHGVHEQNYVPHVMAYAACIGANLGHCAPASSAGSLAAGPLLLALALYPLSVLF

The nature of assay [8]: HEK-293T viability loss after treatment – luminescence, T-cell screen hits, cytotoxicity control for TCR NF-kB inhibitor project, dose response (AID 489026).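 Also: cells exposed to compound about 14 hours before the viability readout.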 Format: functional, cell-based.
The target in assay [9] is Serine/threonine-protein phosphatase PP1-alpha catalytic subunit (Homo sapiens, UniProt P62136). The assay can be described thus: inhibition of protein phosphatase 1 activity – biochemical, fluorescence, dose response (AID 2403).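 Also: phosphatase turnover of OMFP into fluorescent 3-O-methylfluorescein.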
Assay [10] concerns the target Serine/threonine-protein phosphatase (Homo sapiens, UniProt Q9BPW0). The assay can be described thus: Counterscreen for inhibitors of PP1: fluorescence-based biochemical high throughput dose response assay to identify inhibitors of Protein Phosphatase 5 (PP5). [Related pubchem assays: 2034 (Summary (PP5 inhibitors)), 1987 (PP5 inhibitors in singlate), 2235 (PP1 inhibitors in singlate)].

The target of assay [11] is T2, Eukaryotic translation initiation factor 2-alpha kinase 3 (Homo sapiens, UniProt Q9NZJ5). Kind of assay: Dose response cell-based high-throughput screening assay to measure PERK inhibition. [Related pubchem assays: 1416 ]. Format: functional.
Assay [12] addresses T2, Eukaryotic translation initiation factor 2-alpha kinase 3. The assay can be described thus: Counterscreen assay for PERK inhibitors: Dose response cell-based high throughput screening assay to measure inhibition of PERK at 6 hours. [Related pubchem assays: 1522, 1416 ]. It is filed as functional.
The nature of assay [13]: mitochondrial function rescue without frataxin homolog – Friedreich's ataxia, plus single-dose screen, dose response (AID 1465).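 Also: yeast depleted of Yfh1p frataxin homolog grown on glycerol needing respiration; WST-1 tetrazolium dye reduction as measure of cellular dehydrogenase metabolic activity.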 It is filed as functional.
Assay [14] in a line: A cytotoxicity screen of small molecule inhibitors of the PhoP region in Salmonella typhi identified in the primary screen. [Related pubchem assays: 1850, 1864, 1985 ]. It is filed as functional.
Assay [15] concerns INS1. The assay can be described thus: INS-1E survival protection against cytokine death – cell-based, luminescence, retest, dose response (AID 449756).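 Also: cell death triggered by IL-1 beta plus TNF-alpha plus IFN-gamma mixture; protective hits raise ATP signal compared with cytokine alone wells.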 It is filed as functional. The following applies: Rattus norvegicus.
Assay [16] relates to Streptococcus sp. 'group A'. The assay can be described thus: Streptococcus pyogenes SK(-)GAS viability under kanamycin – luminescence, BacTiterGlo, confirmation, counter-screen for streptokinase expression inhibitor project, dose response (AID 1900). Format: functional, organism-based.
Assay [17] is described as follows: HPDE-C7 pancreatic duct cell viability loss – fluorescence, HTS (AID 430). The following applies: Homo sapiens. It is filed as functional, cell-based.
The nature of assay [18]: microbe, parasite or virus in culture. Format: functional. The following applies: Mycobacterium tuberculosis.
Assay [19] is described as follows: viability loss of HPDE-C7K cells – cell-based, fluorescence, HTS, primary screen (AID 431). The note with it: Homo sapiens. Format: functional.
Assay [20] is described as follows: viability of PTEN-deleted HCT116 cells – cell-based, HCT116 PTEN knockout, dose response (AID 1047).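 Also: HCT116 colon tumor cells with PTEN knocked out; cells exposed to compound for 60 hours before readout; potency for loss of cell viability measured by luminescence.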 It is filed as functional.
Assay [21] is described as follows: viability of HCT116 lacking mutant beta-catenin – cell-based, human colon tumor, dose response (AID 1045).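 Also: HCT116 colon tumor cells with beta catenin knocked out; cells exposed to compound for 60 hours.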 It is filed as functional.
Assay [22] has as its target T3, Sphingosine 1-phosphate receptor 4 (Homo sapiens, UniProt O95977).
T3 sequence (O95977 whole entry): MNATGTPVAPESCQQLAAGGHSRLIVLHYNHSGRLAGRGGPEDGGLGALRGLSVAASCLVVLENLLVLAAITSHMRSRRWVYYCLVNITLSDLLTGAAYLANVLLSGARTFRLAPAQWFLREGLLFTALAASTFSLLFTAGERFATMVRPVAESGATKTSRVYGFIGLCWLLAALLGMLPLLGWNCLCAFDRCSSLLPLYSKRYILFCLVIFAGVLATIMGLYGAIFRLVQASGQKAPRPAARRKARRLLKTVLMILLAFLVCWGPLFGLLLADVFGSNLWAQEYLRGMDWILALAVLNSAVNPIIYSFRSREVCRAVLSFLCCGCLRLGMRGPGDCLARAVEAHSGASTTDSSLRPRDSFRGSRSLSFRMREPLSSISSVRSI
The assay can be described thus: Fluorescence dose response cell-based high throughput screening assay for antagonists of the Sphingosine 1-Phosphate Receptor 4 (S1P4). [Related pubchem assays: 1524 (Confirmation in triplicates.), 1510 (Primary screen.)]. Format: functional.

For assay [23], the target named is Sphingosine 1-phosphate receptor 1 (Homo sapiens, UniProt P21453). Format: functional.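 Also: Tango beta-arrestin reporter U2OS cells stimulated with S1P near its EC80; inhibitor potency meaning antagonism of receptor activation by the natural agonist.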
Assay [24] concerns Streptococcus. Kind of assay: GAS UMAA2166 growth inhibition – luminescence, BacTiterGlo, counter-screen for streptokinase expression inhibitor project, dose response (AID 1915).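 Also: potency for reduction of bacterial viability or growth.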 Format: functional, organism-based.
Assay [25] can be described thus: THP-1 cell cytotoxicity, dose response, cytotoxicity control for non-replicating M. tuberculosis project (AID 489025). Format: functional.
Assay [26] in a line: HepG2 cell cytotoxicity, dose response, cytotoxicity control for non-replicating M. tuberculosis project (AID 489018). Format: functional. The note with it: Mycobacterium tuberculosis.
The nature of assay [27]: Vero E6 cell cytotoxicity, dose response, cytotoxicity control for non-replicating M. tuberculosis project, secondary assay (AID 492998). The note with it: Vero C1008. Format: functional, VeroE6.
Assay [28] concerns the target T4, Heat shock factor protein 1 (Mus musculus, UniProt P38532).
T4 sequence (P38532 whole entry): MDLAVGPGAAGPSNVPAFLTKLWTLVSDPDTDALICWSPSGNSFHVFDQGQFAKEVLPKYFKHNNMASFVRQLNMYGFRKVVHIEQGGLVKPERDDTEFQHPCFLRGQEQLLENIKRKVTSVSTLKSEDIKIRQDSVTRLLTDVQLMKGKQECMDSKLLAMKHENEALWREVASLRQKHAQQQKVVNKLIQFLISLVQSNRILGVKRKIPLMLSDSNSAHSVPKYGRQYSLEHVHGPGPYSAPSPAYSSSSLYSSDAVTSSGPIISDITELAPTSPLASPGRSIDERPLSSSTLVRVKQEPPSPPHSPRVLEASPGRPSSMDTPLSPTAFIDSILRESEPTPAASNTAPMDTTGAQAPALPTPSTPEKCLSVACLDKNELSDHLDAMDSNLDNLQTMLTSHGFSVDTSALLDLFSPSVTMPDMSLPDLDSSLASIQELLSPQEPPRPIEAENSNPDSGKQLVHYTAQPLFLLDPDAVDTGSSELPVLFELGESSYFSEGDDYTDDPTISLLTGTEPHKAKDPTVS
The assay can be described thus: enhancement of HSF1-driven luciferase signal – cell-based, NIH3T3, luminescence, dose retest, confirmation (AID 435004).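 Also: stress induced by proteasome inhibitor MG132 added 30 min after compound; luciferase reporter driven by HSF1 response element in NIH3T3 cells; actives raise luminescence as potentiators of the MG132 stress response.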 It is filed as functional.

A short description of assay [29]: cells. Format: functional.
Assay [30] can be described thus: reduction of Shn3 3'UTR-driven luciferase in osteoblasts – cell-based, Clone20 osteoblasts, firefly luciferase, cherry-picked, dose response (AID 624132).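 Also: firefly luciferase luminescence from reporter carrying the Shn3 3'UTR in osteoblasts.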 Format: functional.
Assay [31] can be described thus: loss of viability in HepG2 cells – cell-based, CellTiter-Glo, cherry-picked, cytotoxicity control for Shn3 inhibitor project, dose response (AID 624134). Format: functional.
Assay [32] has as its target T5, Cytochrome P450 2D6 (Homo sapiens, UniProt P10635). The assay can be described thus: qHTS Assay for Inhibitors and Substrates of Cytochrome P450 2D6. [Related pubchem assays: 410 ]. It is filed as ADME. The following applies: read-out: Potency.
Assay [33] concerns the target Cytochrome P450 2C19 (Homo sapiens, UniProt P33261). The assay can be described thus: Cytochrome panel assay with activity outcomes. Panel member name: p450-cyp2c19 Compounds with AC50 equal or less than 10 uM are considered active. It is filed as functional. The note with it: read-out: AC50.
Assay [34] has as its target T5, Cytochrome P450 2D6.
The target of assay [35] is Voltage-gated inwardly rectifying potassium channel KCNH2 (Homo sapiens, UniProt Q12809). The note with it: Potency.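 Also: confirmatory quantitative high-throughput screen measuring inhibition of hERG channel activity.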
Sequence of Voltage-gated inwardly rectifying potassium channel KCNH2 (Q12809 whole entry): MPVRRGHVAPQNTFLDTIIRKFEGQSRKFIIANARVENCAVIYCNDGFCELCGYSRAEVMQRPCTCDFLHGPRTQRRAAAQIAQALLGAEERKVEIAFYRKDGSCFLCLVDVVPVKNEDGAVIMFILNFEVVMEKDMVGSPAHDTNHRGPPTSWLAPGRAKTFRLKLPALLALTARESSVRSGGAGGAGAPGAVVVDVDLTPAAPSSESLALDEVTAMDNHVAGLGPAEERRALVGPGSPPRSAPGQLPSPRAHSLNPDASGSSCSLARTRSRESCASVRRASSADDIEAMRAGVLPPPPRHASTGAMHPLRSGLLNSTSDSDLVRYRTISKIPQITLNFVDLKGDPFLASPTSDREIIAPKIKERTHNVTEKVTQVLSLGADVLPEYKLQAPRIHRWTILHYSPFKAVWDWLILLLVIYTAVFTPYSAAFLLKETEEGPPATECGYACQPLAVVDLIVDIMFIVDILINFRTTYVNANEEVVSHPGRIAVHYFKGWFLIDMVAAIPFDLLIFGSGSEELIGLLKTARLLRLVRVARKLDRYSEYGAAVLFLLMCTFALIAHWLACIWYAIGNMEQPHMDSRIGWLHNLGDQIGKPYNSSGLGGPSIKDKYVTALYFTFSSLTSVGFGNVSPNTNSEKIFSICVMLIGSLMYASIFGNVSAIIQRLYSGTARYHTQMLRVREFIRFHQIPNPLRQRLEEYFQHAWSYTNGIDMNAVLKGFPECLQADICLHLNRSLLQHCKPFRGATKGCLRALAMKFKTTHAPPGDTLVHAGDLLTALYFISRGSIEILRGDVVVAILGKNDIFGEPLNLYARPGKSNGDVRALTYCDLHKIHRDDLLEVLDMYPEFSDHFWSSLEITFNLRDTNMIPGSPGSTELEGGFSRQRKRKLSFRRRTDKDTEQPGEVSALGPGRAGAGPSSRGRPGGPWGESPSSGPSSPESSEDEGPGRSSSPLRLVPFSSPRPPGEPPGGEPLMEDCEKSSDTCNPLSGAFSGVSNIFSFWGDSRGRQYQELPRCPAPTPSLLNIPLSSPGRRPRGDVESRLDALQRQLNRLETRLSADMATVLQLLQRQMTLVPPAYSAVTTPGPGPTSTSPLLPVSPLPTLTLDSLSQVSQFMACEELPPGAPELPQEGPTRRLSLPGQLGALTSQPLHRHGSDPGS

T5 sequence (P10635 whole entry): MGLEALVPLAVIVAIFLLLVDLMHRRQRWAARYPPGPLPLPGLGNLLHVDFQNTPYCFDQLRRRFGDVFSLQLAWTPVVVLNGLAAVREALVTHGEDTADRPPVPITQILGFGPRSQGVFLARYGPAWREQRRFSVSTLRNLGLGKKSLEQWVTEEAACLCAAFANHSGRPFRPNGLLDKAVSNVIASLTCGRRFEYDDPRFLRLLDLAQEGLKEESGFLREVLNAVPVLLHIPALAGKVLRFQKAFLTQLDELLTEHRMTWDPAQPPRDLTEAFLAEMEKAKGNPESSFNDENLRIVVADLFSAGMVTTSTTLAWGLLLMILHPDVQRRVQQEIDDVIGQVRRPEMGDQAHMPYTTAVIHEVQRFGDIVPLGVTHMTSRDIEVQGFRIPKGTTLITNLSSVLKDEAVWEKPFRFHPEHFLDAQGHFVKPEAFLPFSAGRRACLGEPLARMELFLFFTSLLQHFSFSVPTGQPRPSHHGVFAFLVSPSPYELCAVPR
T2 sequence (Q9NZJ5 whole entry): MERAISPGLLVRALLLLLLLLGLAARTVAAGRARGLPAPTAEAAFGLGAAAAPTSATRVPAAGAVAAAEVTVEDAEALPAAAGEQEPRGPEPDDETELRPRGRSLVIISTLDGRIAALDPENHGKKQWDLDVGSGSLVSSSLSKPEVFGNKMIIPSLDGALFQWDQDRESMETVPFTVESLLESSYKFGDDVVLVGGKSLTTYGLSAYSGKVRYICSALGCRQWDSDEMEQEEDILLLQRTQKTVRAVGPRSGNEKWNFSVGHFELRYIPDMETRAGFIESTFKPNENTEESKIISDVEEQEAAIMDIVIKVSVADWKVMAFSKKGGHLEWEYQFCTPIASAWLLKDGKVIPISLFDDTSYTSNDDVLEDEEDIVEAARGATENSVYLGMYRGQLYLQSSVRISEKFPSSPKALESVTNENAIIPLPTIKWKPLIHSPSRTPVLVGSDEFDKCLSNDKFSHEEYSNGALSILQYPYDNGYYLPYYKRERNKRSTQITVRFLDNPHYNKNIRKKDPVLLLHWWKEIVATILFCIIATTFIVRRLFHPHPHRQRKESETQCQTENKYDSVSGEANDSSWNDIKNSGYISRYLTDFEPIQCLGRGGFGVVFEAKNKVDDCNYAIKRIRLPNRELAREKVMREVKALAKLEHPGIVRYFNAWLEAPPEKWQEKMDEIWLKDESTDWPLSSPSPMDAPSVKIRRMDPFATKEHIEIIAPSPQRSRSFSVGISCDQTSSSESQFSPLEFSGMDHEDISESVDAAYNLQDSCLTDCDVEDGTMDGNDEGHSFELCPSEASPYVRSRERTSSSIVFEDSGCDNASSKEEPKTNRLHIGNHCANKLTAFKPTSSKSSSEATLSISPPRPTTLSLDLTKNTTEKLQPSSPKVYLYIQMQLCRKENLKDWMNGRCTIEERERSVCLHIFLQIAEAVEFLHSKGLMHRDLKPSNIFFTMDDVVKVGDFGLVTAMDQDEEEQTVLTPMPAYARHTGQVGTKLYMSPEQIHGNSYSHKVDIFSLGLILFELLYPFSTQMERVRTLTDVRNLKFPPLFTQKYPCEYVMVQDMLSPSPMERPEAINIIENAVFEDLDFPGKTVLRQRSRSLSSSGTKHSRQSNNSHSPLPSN
Sequence of Serine/threonine-protein phosphatase PP1-alpha catalytic subunit (P62136 whole entry): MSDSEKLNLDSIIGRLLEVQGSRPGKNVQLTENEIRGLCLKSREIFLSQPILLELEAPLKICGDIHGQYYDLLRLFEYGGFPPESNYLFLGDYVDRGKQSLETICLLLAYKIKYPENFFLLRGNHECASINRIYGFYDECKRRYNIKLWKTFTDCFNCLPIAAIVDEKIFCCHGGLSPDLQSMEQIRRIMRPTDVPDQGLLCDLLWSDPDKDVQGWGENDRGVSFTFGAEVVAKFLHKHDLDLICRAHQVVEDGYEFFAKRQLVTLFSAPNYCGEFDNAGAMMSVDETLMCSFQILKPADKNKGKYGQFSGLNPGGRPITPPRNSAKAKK
Sequence of Cytochrome P450 2C19 (P33261 whole entry): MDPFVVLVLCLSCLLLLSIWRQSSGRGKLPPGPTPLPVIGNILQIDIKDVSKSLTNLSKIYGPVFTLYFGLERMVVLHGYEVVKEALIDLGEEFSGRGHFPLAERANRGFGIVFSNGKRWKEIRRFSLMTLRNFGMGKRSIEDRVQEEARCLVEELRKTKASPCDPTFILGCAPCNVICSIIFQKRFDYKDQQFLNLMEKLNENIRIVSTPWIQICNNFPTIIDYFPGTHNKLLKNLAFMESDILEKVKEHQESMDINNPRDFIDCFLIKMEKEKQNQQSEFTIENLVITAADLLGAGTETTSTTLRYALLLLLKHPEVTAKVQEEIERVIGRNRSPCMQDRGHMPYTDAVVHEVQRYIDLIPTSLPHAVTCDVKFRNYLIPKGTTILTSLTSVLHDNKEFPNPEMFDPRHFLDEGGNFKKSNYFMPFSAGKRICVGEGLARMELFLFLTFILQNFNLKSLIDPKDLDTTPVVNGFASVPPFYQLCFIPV
Sequence of Oxytocin receptor (P30559 whole entry): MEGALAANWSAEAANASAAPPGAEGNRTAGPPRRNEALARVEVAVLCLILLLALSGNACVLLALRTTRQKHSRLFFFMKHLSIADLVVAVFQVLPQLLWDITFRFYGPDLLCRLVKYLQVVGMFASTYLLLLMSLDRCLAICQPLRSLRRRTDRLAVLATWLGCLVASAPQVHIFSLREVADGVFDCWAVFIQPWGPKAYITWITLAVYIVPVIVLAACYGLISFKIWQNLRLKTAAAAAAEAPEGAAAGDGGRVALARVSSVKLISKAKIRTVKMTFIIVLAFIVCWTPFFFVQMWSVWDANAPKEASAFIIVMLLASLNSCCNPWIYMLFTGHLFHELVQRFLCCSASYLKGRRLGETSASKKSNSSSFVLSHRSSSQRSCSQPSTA
Sequence of Large T antigen (P03070 whole entry): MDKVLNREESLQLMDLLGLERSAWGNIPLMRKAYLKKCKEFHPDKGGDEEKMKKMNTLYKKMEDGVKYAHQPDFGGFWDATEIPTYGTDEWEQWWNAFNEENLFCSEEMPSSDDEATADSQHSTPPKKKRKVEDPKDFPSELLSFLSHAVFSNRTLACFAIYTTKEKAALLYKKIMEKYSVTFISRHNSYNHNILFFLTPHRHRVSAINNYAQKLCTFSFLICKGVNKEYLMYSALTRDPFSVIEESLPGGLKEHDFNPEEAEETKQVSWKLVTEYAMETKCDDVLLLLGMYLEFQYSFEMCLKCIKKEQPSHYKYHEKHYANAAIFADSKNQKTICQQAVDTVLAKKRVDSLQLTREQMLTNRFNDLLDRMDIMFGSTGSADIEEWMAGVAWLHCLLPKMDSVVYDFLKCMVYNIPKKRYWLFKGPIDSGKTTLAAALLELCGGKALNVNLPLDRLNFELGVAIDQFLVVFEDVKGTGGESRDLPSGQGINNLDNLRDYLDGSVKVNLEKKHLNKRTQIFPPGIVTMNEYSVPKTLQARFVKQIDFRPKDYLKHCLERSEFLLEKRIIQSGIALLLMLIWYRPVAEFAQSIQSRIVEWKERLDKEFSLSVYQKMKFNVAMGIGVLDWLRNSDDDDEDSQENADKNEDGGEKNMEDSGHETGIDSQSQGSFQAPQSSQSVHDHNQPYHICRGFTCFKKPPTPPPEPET

By EC50 is commonly meant the concentration at which the effect is half-maximal. On to `CC(Oc1ccc(F)cc1)C(=O)Nc1ccc(S(=O)(=O)NC2=NCCCCC2)cc1` (stereo not given), for which the EC50 in assay [1] and in [2] was > 29.9 µM (not active) each time.

As a reminder, the MIC is the lowest concentration found to suppress growth. Usually IC50 stands for the point on the concentration scale where inhibition reaches its midpoint. In the case of `COc1cc(/C=C2\SC(=S)N(NC(=O)c3cccnc3)C2=O)ccc1O`, the results for the EC50 in [3] and in assay [6] were 103 µM (active) and 9.9 µM (active), respectively. Also, the MIC in assay [4] is > 37 µM (inconclusive). The IC50 in [5] is 8.49 µM (active).

Regarding `CCOC(=O)c1ccc2nc(Nc3nc4ccc(F)cc4s3)sc2c1`, the EC50 in [7] is 33.6 µM (active). In addition, the IC50 in assay [8] was > 80 µM (inactive).

For `Cc1ccc(-n2nc(C(=O)O)cc2-c2ccc(Cl)cc2)cc1`, the IC50 was 9.65 µM (active) in assay [9] and > 67 µM (not active) in [10].

Turning to `COCCNC(=O)c1cnn2c(O)cc(C3CCN(C(=O)OC(C)(C)C)CC3)nc12`, the EC50 in assay [11] and in assay [12] was > 55.7 µM (not active) in each case.

Take `CCOC(=O)/C(C#N)=C/C=C1/C=CC=CN1C`: the EC50 in assay [13] was > 100 µM (active).

With `O=C(c1ccc2c(c1)nc(S)n1c3ccccc3nc21)N1CCN(c2cccc(Cl)c2)CC1`, the EC50 in assay [14] was > 50 µM (active). Besides, the AC50 in [15] is 8.62 µM (active).

In the case of `Cc1ccc(S(=O)(=O)Nc2cccc3ncccc23)s1`, the EC50 was 1.78 µM (active) in assay [16]; 11.3 µM (active) in [17]; 10.3 µM (active) in assay [19]; 1.73 µM (active) in assay [20]; 1.46 µM (active) in assay [21]; 10.1 µM (active) in assay [24]. In assay [28], the EC50 was 3.91 µM (active). In addition, the CC50 was 6.47 µM (active) in assay [18], 6.44 µM (active) in [25], 6.97 µM (active) in assay [26] and 4.2 µM (active) in assay [27]. The 50% inhibitory concentration (IC50) in [22] was 611 nM (active); in assay [23] it was 1.19 µM (active); in assay [29], 2.01 µM (active). Also, the AC50 was 3.85 µM (active) in [30] and 9.75 µM (active) in [31].

Regarding `O=C(CCc1ccc(O)cc1)c1c(O)cc(O)cc1O` [PHLORETIN], the AC50 in [32] is 25.1 µM (inconclusive); in [33], 20 µM (inconclusive); in assay [34], 39.8 µM (inconclusive); in assay [35], 12.6 µM (inconclusive).

Source of the values: ChEMBL document CHEMBL1201862, “PubChem BioAssay data set” (2004).
